In patent US20130096050A1 (Longevity Biotech, Inc., priority 2010, published 2013):
“Also recorded” adds a separate entry of the source.

What was measured:
VIPR2 (VPAC2) = biological target: T1, VIPR2 (VPAC2) (Homo sapiens, UniProt P41587); experiment: cAMP Hunter cell line functional assay, agonist mode (DiscoveRx HitHunter cAMP XS+); type: cell-based; conditions: FIG. 3
T1 construct: host or cells: cAMP Hunter cell line (CHO-K1 is named only in the prophetic b955)
T1 sequence (P41587 24-438): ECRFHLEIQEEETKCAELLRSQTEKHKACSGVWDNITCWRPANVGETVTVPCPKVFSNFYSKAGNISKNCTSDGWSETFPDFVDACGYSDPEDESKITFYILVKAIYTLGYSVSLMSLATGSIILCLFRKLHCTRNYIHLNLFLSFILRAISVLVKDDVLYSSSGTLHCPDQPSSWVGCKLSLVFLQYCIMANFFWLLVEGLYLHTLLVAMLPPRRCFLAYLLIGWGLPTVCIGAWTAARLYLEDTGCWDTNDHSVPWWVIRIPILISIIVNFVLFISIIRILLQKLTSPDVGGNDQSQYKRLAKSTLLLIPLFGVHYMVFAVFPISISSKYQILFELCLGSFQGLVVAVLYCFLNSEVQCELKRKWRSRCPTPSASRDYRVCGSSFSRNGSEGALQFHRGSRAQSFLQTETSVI
Procedure: (§1) Once it was established that the cells were healthy and growing normally, cells were passaged from flasks using cell dissociation reagent buffer and seeded into white walled clear bottom 384-well microplates for compound profiling. For profiling, cells were seeded at a density of 10,000 cells per well in a total volume of 20 μL and were allowed to adhere and recover overnight prior to compound addition. cAMP modulation was determined using the DiscoveRx HitHunter cAMP XS+ assay.
(§2) For profiling compound in agonist mode, the cells were incubated in the presence of compound at 37° C. for 30 minutes. […] After appropriate compound incubation, assay signal was generated through incubation with DiscoverX lysis cocktail according to the manufacturers standard protocol. Dose curves were plotted using GraphPad Prism or Activity Base. Percentage activity is calculated using the following formula:
(§3) % Activity=100%×(mean RLU of test sample−mean RLU of vehicle control)/(mean RLU of MAX control−mean RLU of vehicle control).

VIPR1 (VPAC1) = biological target: T2, VIPR1 (VPAC1) (Homo sapiens, UniProt P32241); experiment: as above; type: cell-based; conditions: for Mean RLU: cAMP, VIPR1 cells
T2 sequence (P32241 31-457): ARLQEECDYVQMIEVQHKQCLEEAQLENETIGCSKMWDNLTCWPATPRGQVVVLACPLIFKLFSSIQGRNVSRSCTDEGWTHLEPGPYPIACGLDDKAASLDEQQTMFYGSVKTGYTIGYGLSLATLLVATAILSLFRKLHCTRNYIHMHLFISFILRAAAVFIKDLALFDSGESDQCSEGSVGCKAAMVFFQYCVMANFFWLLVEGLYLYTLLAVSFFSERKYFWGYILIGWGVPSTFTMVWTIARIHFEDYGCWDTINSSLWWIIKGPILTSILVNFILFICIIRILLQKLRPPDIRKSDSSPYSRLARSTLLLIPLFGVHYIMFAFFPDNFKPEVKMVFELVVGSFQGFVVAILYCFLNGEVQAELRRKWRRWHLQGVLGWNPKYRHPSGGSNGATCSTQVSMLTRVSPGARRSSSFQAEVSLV
Procedure: as §1, §2, §3

[1] = humans; cited from earlier work
calcitonin receptors = conditions: amylin receptor vs calcitonin receptors; cited from earlier work
CGRP receptors = CGRP receptors (Homo sapiens, UniProt O60894+Q16602); conditions: amylin receptor vs CGRP receptors; cited from earlier work
Chain of CGRP receptors (Q16602 23-461): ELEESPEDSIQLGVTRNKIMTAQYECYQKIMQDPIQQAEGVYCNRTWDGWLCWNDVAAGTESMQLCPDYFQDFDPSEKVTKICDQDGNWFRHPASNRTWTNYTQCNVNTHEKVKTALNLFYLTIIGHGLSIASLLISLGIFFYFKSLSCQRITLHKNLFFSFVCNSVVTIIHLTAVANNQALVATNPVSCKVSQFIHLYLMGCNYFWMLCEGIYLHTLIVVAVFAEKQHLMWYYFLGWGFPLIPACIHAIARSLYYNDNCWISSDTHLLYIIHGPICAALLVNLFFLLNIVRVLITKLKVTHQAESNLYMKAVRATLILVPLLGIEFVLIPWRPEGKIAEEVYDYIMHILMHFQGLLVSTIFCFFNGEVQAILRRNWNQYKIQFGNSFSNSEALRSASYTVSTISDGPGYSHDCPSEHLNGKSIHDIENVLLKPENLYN
Chain of CGRP receptors (O60894 27-148 partner): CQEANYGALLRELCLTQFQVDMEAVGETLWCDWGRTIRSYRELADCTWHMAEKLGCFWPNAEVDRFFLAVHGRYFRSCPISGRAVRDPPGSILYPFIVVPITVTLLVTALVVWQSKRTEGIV

amylin receptor = conditions: read-out: IC50, amylin receptor antagonist; cited from earlier work
neurotensin receptors = conditions: rat brain receptors; read-out: IC50, inhibition of {Trp11}-NT binding; cited from earlier work

HSDAVFTDNYXRLZKQLXVKZYLNX ILN [Compound 8]
activation of / interaction with VIPR2 (in words) (VIPR2 (VPAC2)): not activate; also recorded: does not interact substantially
Mean RLU (VIPR1 (VPAC1); 1.03E−08 M): 13700.0 RLU
Mean RLU (VIPR1 (VPAC1); 1.03E−09 M): 13500.0 RLU
Mean RLU (VIPR1 (VPAC1); 1.03E−10 M): 9960.0 RLU
Mean RLU (VIPR1 (VPAC1); 1.03E−11 M): 10500.0 RLU
Mean RLU (VIPR1 (VPAC1); 1.03E−12 M): 10340.0 RLU
Mean RLU (VIPR1 (VPAC1); 5.03E−07 M): 112320.0 RLU
Mean RLU (VIPR1 (VPAC1); 5.03E−08 M): 96460.0 RLU
Mean RLU (VIPR1 (VPAC1); 5.03E−09 M): 13200.0 RLU
Mean RLU (VIPR1 (VPAC1); 5.03E−10 M): 9520.0 RLU
activation of VIPR1 (in words) (VIPR1 (VPAC1); FIG. 3): fully activate
EC50 (VIPR1 (VPAC1); cAMP readout, 37° C. for 30 minutes, read-out: EC50 (peptide concentration for 50% VIPR1 activation)): 28 nM

GLP-1: glucagon-like peptide-1, a product of the proglucagon gene, gut hormone (HDEFERHAEGTFTSDVSSYLEGQAAQGFIAWLVKGRG)
plasma half-life [1]: 2 min

AC 187
selectivity over calcitonin receptors (calcitonin receptors): 38 fold
selectivity over CGRP receptors (CGRP receptors): 400 fold
IC50 (amylin receptor): 0.48 nM

Neuromedin N
IC50 (neurotensin receptors): 16.7 nM
